Data on 13 molecules can be found in US7662832B2, “Pyrrolo[2,3-c]pyridine derivatives and processes for the preparation thereof” (priority 2004, dated 2010).

Structures are written as SMILES. Where a name gives a salt, the structure may show the parent alone.

In this assay the target is Proton Pump (H^+/K^+-ATPase) (Sus scrofa, UniProt P19156). Kind of assay: Inhibitory effects on proton pump (H^+/K^+-ATPase) activity. In kind it is biochemical. The settings on record: hog gastric vesicles; K^+ stimulated H^+/K^+-ATPase activity; 30 minutes at 37° C.
Sequence of Proton Pump (H^+/K^+-ATPase) (P19156 2-1034 limits assumed): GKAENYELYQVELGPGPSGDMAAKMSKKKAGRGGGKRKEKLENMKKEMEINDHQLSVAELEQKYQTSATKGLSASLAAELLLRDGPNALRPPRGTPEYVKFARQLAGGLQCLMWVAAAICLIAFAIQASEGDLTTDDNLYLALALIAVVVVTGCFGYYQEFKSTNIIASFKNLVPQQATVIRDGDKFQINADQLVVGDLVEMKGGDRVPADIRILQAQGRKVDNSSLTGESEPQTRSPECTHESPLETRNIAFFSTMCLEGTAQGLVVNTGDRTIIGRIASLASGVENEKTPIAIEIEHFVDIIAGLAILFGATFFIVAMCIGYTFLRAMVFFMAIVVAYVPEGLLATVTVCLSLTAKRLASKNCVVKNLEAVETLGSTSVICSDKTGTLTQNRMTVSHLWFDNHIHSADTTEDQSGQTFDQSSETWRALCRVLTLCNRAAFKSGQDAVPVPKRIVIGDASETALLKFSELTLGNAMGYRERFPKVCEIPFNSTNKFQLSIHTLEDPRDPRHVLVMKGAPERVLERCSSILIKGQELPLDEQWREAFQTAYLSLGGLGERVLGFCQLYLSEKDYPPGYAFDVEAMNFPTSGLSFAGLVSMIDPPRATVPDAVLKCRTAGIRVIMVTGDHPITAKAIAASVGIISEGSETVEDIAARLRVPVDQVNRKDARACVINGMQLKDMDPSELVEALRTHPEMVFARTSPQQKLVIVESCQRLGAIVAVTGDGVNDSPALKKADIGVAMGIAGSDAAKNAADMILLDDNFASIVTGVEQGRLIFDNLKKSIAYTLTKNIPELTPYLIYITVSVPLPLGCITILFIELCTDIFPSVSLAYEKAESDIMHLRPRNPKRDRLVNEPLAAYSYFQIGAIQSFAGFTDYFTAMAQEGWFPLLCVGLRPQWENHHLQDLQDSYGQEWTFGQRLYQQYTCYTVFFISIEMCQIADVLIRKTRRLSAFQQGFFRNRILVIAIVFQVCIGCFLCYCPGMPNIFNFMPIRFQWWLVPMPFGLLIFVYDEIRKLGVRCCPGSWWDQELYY
Sequence of Proton Pump (H^+/K^+-ATPase) (P18434 whole entry partner): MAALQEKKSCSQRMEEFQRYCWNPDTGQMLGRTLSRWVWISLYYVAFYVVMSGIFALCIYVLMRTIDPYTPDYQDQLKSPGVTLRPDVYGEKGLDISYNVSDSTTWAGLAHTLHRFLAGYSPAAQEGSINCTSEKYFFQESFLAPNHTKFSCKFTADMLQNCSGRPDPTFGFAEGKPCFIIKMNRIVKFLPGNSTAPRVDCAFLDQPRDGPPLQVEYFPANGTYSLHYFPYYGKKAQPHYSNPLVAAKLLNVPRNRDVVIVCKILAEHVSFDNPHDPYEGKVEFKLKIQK
Usually IC50 stands for the concentration needed to halve the response being measured. Low values mean inhibition by little substance, high ones a need for much substance. `CCn1c(C)c(C)c2ccnc(N3CCc4ccccc4C3C)c21` (stereo not shown) [Example 554, 2-(1-ethyl-2,3-dimethyl-1H-pyrrolo[2,3-c]pyridin-7-yl)-1-methyl-1,2,3,4-tetrahydroisoquinoline hydrochloride] registered a half-maximal inhibitory concentration (IC50) of 0.059 µM. Consider `C#CCn1c(C)c(C)c2ccnc(-c3ccc(C=C)cc3)c21` [Example 249, 2,3-dimethyl-1-(prop-2-ynyl)-7-(4-vinylphenyl)-1H-pyrrolo[2,3-c]pyridine hydrochloride], for which inhibition was half-maximal at 0.05 µM (IC50). Next, `Cc1c(C)n(Cc2ccccc2F)c2c(CCc3ccccc3)nccc12` [Example 450, 1-(2-fluorobenzyl)-2,3-dimethyl-7-phenethyl-1H-pyrrolo[2,3-c]pyridine hydrochloride]: 0.27 µM; `Cc1cccc(Cn2c(C)c(C)c3cc(C(=O)N4CCN(C)CC4)nc(N4CCc5ccccc5C4)c32)c1` [Example 820, [7-(3,4-dihydro-1H-isoquinolin-2-yl)-2,3-dimethyl-1-(3-methylbenzyl)-1H-pyrrolo[2,3-c]pyridin-5-yl]-(4-methylpiperazin-1-yl)-methanone hydrochloride]: 0.037 µM; `CCn1c(C)c(C)c2cc(C(=O)N3CCN(C)CC3)nc(N3CCc4ccccc4C3)c21` [Example 782, [7-(3,4-dihydro-1H-isoquinolin-2-yl)-1-ethyl-2,3-dimethyl-1H-pyrrolo[2,3-c]pyridin-5-yl]-(4-methylpiperazin-1-yl)-methanone hydrochloride]: 0.001 µM. `COCCn1c(C)c(C)c2cc(C(=O)O)nc(N3CCc4ccccc4C3)c21` [Example 734, 7-(3,4-dihydro-1H-isoquinolin-2-yl)-1-(2-methoxyethyl)-2,3-dimethyl-1H-pyrrolo[2,3-c]pyridin-5-carboxylic acid] returned an IC50 of 0.366 µM. As to `COc1cccc(Cn2c(C)c(C)c3ccnc(COc4ccc(F)cc4)c32)c1` [Example 4, 7-(4-fluorophenoxymethyl)-1-(3-methoxybenzyl)-2,3-dimethyl-1H-pyrrolo[2,3-c]pyridine hydrochloride], the IC50 worked out at 0.15 µM. Next, `Cc1c(C)n(Cc2cccc(Cl)c2)c2c(N3CCc4ccccc4C3)nc(C=O)cc12` [Example 863, 1-(3-chlorobenzyl)-7-(3,4-dihydro-1H-isoquinolin-2-yl)-2,3-dimethyl-1H-pyrrolo[2,3-c]pyridin-5-carbaldehyde]: 0.109 µM; `C=CCCn1c(C)c(C)c2ccnc(N3CCc4ccccc4C3)c21` [Example 508, 1-(but-3-enyl)-7-(1,2,3,4-tetrahydroisoquinolin-2-yl)-2,3-dimethyl-1H-pyrrolo[2,3-c]pyridine hydrochloride]: 0.32 µM; `C#CCn1c(C)c(C)c2cc(Cl)nc(N3CCc4ccccc4C3)c21` [Example 659, 2-[5-chloro-2,3-dimethyl-1-(prop-2-ynyl)-1H-pyrrolo[2,3-c]pyridin-7-yl]-1,2,3,4-tetrahydroisoquinoline]: 0.439 µM. Next, `Cc1c(C)n(Cc2ccccc2)c2c(NCc3ccc(F)cc3)nc(C(=O)N3CCN(C)CC3)cc12` [Example 906, [1-benzyl-7-(4-fluorobenzylamino)-2,3-dimethyl-1H-pyrrolo[2,3-c]pyridin-5-yl]-(4-methylpiperazin-1-yl)-methanone hydrochloride]: 0.031 µM.

Turning to `COc1ccc(Cn2c(C)c(C)c3ccnc(N4CCc5cc(F)ccc5C4C)c32)cc1` (stereo not shown) [Example 566, 6-fluoro-2-[1-(4-methoxybenzyl)-2,3-dimethyl-1H-pyrrolo[2,3-c]pyridin-7-yl]-1-methyl-1,2,3,4-tetrahydroisoquinoline hydrochloride], the IC50 came to 0.3 µM. The molecule `C=CCn1c(C)c(C)c2cc(C(=O)NCC(F)(F)F)nc(N3CCc4ccccc4C3)c21` [Example 762, 1-allyl-7-(3,4-dihydro-1H-isoquinolin-2-yl)-2,3-dimethyl-N-(2,2,2-trifluoroethyl)-1H-pyrrolo[2,3-c]pyridin-5-carboxamide] came in with an IC50 of 0.35 µM.
